Experimental data reported in patent publication US11000033B2, “Ketone or oxime compound, and herbicide” (NISSAN CHEMICAL CORPORATION, priority 2014, dated 2021).

Columns and labels:
Type in all cases: in vivo
[1] = test system: Echinochloa oryzacola Vasing.; experiment: Test Example 1: herbicidal activity, application before weed generation in submerged conditions (symbol A); details: application herbicide amount 320 g/ha
In short: (§1)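 0–5 visual score, 3 wk post-application. Submerged pots, alluvial soil, water 4 cm; seeds sown mixed, rice at 2.5 leaves transplanted. Emulsion diluted to predetermined dose, applied to water surface at sowing. 25–30 °C greenhouse.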

[2] = test system: Scirpus juncoides; experiment: Test Example 1: herbicidal activity, application before weed generation in submerged conditions (symbol B); details: application herbicide amount 320 g/ha
In short: as §1

[3] = test system: Scirpus juncoides; experiment: Test Example 2: herbicidal activity, application during weed generation in submerged conditions (symbol B); details: Table 23; application herbicide amount 320 g/ha; grade 0-5 by criteria of Test Example 1
In short: (§2)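 Flooded-soil post-emergence test: emulsion of compound, water-diluted to target rate, applied to paddy water surface at 1–2 leaf stage of mixed-sown weeds (alluvial soil, 4 cm water, 25–30° C. greenhouse); visual rating 3 weeks after application.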

[4] = test system: Monochoria vaginalis; experiment: Test Example 2: herbicidal activity, application during weed generation in submerged conditions (symbol C); details: Table 23; application herbicide amount 320 g/ha; grade 0-5 by criteria of Test Example 1
In short: as §2

[5] = test system: Echinochloa crus-galli var. crus-galli; experiment: Test Example 3: herbicidal effect by foliage application, Wagner pot (symbol H); details: application herbicide amount 320 g/ha
In short: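 Rating at 3 weeks post-spray, by defined criteria. Treatment: emulsion diluted with water to a predetermined amount, applied evenly to foliage of 14-day-old plants raised in alluvial soil flooded 0.1–0.5 cm deep at 25–30 °C, rice co-sown.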

[6] = test system: Amaranthus retroflexus; experiment: Test Example 4: herbicidal effect by soil treatment (symbol N); details: for N (Amaranthus retroflexus) herbicidal effect grade: application herbicide amount 320 g/ha; for N: Amaranthus retroflexus, herbicidal effect grade: 320 g/ha
In short: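 Seeds were sown in sterilized diluvial soil, covered with about 1.5 cm of soil, and the soil surface was sprayed with a water-diluted emulsion of the compound at a predetermined rate. Plants grew in a greenhouse at 25° C. to 30° C.; effects were scored visually 3 weeks after application.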

[7] = test system: soybean; experiment: Test Example 4: effect on crop by soil treatment (symbol d); details: for d (soybean) effect on crop grade: application herbicide amount 320 g/ha; for d: soybean, effect grade on crop: 320 g/ha
In short: (§3)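 Seeds were sown in spots on sterilized diluvial soil in a plastic box and covered with about 1.5 cm of soil. Plants were then grown in a greenhouse at 25° C. to 30° C.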

[8] = test system: rapeseed; experiment: Test Example 4: effect on crop by soil treatment (symbol g); details: for g (rapeseed) effect on crop grade: application herbicide amount 320 g/ha; for g: rapeseed, effect grade on crop: 320 g/ha
In short: as §3

[9] = test system: Avena fatua; experiment: Test Example 5: herbicidal effect by foliage application, plastic box (symbol I); details: 320 g/ha, 3 weeks after application
In short: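 Visual herbicidal score, taken three weeks post-application, of seedlings sprayed on the foliage with water-diluted emulsion at a predetermined amount; plants were 14 days old, greenhouse-raised at 25° C. to 30° C.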

[10] = test system: soybean; experiment: Test Example 5: effect on crop by foliage application, plastic box (symbol d); details: 320 g/ha, 3 weeks after application
In short: (§4)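 Diluvial soil, sterilized and boxed (21 × 13 × 7 cm), received spot-sown seed covered by about 1.5 cm soil; plants were then greenhouse-grown at 25–30° C.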

[11] = test system: rice plant; experiment: Test Example 5: effect on crop by foliage application, plastic box (symbol b); details: 320 g/ha, 3 weeks after application
In short: as §4

[12] = test system: wheat; experiment: Test Example 5: effect on crop by foliage application, plastic box (symbol e); details: 320 g/ha, 3 weeks after application
In short: as §4

## CON=C(C)CC1CC(O)=C(c2c(C)cc(C)cc2C)C1=O (stereo not drawn) [1-002, 3-hydroxy-2-mesityl-5-{2-(methoxyimino)propyl}cyclopent-2-enone]
[1]
  Herbicidal effect grade, A: Echinochloa oryzacola Vasing.: 5 (Herbicidal ratio of 90% or more (almost completely withered))
[2]
  Herbicidal effect grade, B: Scirpus juncoides: 4 (Herbicidal ratio of 70% or higher and lower than 90%)
[3]
  Herbicidal effect grade, B: Scirpus juncoides: 3 (Herbicidal ratio of 40% or higher and lower than 70%)
[4]
  Herbicidal effect grade, C: Monochoria vaginalis: 3 (Herbicidal ratio of 40% or higher and lower than 70%)
[5]
  herbicidal effect on H (Echinochloa crus-galli var. crus-galli), grade 0-5: 5 (Herbicidal ratio of 90% or more (almost completely withered))
[6]
  N (Amaranthus retroflexus) herbicidal effect grade: 5 (Herbicidal ratio of 90% or more (almost completely withered))
[7]
  d (soybean) effect on crop grade: 0 (Herbicidal ratio of 5% or lower (almost no effect))
[8]
  g (rapeseed) effect on crop grade: 5 (Herbicidal ratio of 90% or more (almost completely withered))
[9]
  I: Avena fatua, herbicidal effect grade: 5 (Herbicidal ratio of 90% or more (almost completely withered))
[10]
  d: soybean, effect on crop grade: 4 (Herbicidal ratio of 70% or higher and lower than 90%)
[11]
  b: directly sowed rice plant, effect on crop grade: 5 (Herbicidal ratio of 90% or more (almost completely withered))
[12]
  e: wheat, effect on crop grade: 5 (Herbicidal ratio of 90% or more (almost completely withered))

## CSCCON=C(C)CC1CC(O)=C(c2c(C)cc(C)cc2C)C1=O (stereo not drawn) [1-029]
[1]
  Herbicidal effect grade, A: Echinochloa oryzacola Vasing.: 4 (Herbicidal ratio of 70% or higher and lower than 90%)
[2]
  Herbicidal effect grade, B: Scirpus juncoides: 0 (Herbicidal ratio of 5% or lower (almost no effect))
[3]
  Herbicidal effect grade, B: Scirpus juncoides: 0 (Herbicidal ratio of 5% or lower (almost no effect))
[4]
  Herbicidal effect grade, C: Monochoria vaginalis: 0 (Herbicidal ratio of 5% or lower (almost no effect))
[5]
  herbicidal effect on H (Echinochloa crus-galli var. crus-galli), grade 0-5: 5 (Herbicidal ratio of 90% or more (almost completely withered))
[6]
  N (Amaranthus retroflexus) herbicidal effect grade: 0 (Herbicidal ratio of 5% or lower (almost no effect))
[7]
  d (soybean) effect on crop grade: 0 (Herbicidal ratio of 5% or lower (almost no effect))
[8]
  g (rapeseed) effect on crop grade: 3 (Herbicidal ratio of 40% or higher and lower than 70%)
[9]
  I: Avena fatua, herbicidal effect grade: 5 (Herbicidal ratio of 90% or more (almost completely withered))
[10]
  d: soybean, effect on crop grade: 1 (Herbicidal ratio of 5% or higher and lower than 20%)
[11]
  b: directly sowed rice plant, effect on crop grade: 5 (Herbicidal ratio of 90% or more (almost completely withered))
[12]
  e: wheat, effect on crop grade: 5 (Herbicidal ratio of 90% or more (almost completely withered))

## CON=C(C)CC1CC(OC(=O)C2=C(Br)CCC2)=C(c2c(C)cc(C)cc2C)C1=O (stereo not drawn) [1-089]
[1]
  Herbicidal effect grade, A: Echinochloa oryzacola Vasing.: 5 (Herbicidal ratio of 90% or more (almost completely withered))
[2]
  Herbicidal effect grade, B: Scirpus juncoides: 5 (Herbicidal ratio of 90% or more (almost completely withered))
[3]
  Herbicidal effect grade, B: Scirpus juncoides: 4 (Herbicidal ratio of 70% or higher and lower than 90%)
[4]
  Herbicidal effect grade, C: Monochoria vaginalis: 3 (Herbicidal ratio of 40% or higher and lower than 70%)
[5]
  herbicidal effect on H (Echinochloa crus-galli var. crus-galli), grade 0-5: 5 (Herbicidal ratio of 90% or more (almost completely withered))
[6]
  N: Amaranthus retroflexus, herbicidal effect grade: 3 (Herbicidal ratio of 40% or higher and lower than 70%)
[7]
  d: soybean, effect grade on crop: 0 (Herbicidal ratio of 5% or lower (almost no effect))
[8]
  g: rapeseed, effect grade on crop: 4 (Herbicidal ratio of 70% or higher and lower than 90%)
[9]
  I: Avena fatua, herbicidal effect (criteria 0-5): 5 (Herbicidal ratio of 90% or more (almost completely withered))
[10]
  d: soybean, effect on crop (criteria 0-5): 2 (Herbicidal ratio of 20% or higher and lower than 40%)
[11]
  b: directly sowed rice plant, effect on crop (criteria 0-5): 5 (Herbicidal ratio of 90% or more (almost completely withered))
[12]
  e: wheat, effect on crop (criteria 0-5): 5 (Herbicidal ratio of 90% or more (almost completely withered))

## CC(CC1CC(O)=C(c2c(C)cc(C)cc2C)C1=O)=NOCC(C)O (stereo not drawn) [1-027]
[1]
  Herbicidal effect grade, A: Echinochloa oryzacola Vasing.: 4 (Herbicidal ratio of 70% or higher and lower than 90%)
[2]
  Herbicidal effect grade, B: Scirpus juncoides: 3 (Herbicidal ratio of 40% or higher and lower than 70%)
[3]
  Herbicidal effect grade, B: Scirpus juncoides: 3 (Herbicidal ratio of 40% or higher and lower than 70%)
[4]
  Herbicidal effect grade, C: Monochoria vaginalis: 0 (Herbicidal ratio of 5% or lower (almost no effect))
[5]
  herbicidal effect on H (Echinochloa crus-galli var. crus-galli), grade 0-5: 5 (Herbicidal ratio of 90% or more (almost completely withered))
[6]
  N (Amaranthus retroflexus) herbicidal effect grade: 0 (Herbicidal ratio of 5% or lower (almost no effect))
[7]
  d (soybean) effect on crop grade: 0 (Herbicidal ratio of 5% or lower (almost no effect))
[8]
  g (rapeseed) effect on crop grade: 4 (Herbicidal ratio of 70% or higher and lower than 90%)
[9]
  I: Avena fatua, herbicidal effect grade: 5 (Herbicidal ratio of 90% or more (almost completely withered))
[10]
  d: soybean, effect on crop grade: 3 (Herbicidal ratio of 40% or higher and lower than 70%)
[11]
  b: directly sowed rice plant, effect on crop grade: 5 (Herbicidal ratio of 90% or more (almost completely withered))
[12]
  e: wheat, effect on crop grade: 4 (Herbicidal ratio of 70% or higher and lower than 90%)

## CC(CC1CC(O)=C(c2c(C)cc(C)cc2C)C1=O)=NOC(C)(C)C (stereo not drawn) [1-053]
[1]
  Herbicidal effect grade, A: Echinochloa oryzacola Vasing.: 5 (Herbicidal ratio of 90% or more (almost completely withered))
[2]
  Herbicidal effect grade, B: Scirpus juncoides: 3 (Herbicidal ratio of 40% or higher and lower than 70%)
[3]
  Herbicidal effect grade, B: Scirpus juncoides: 0 (Herbicidal ratio of 5% or lower (almost no effect))
[4]
  Herbicidal effect grade, C: Monochoria vaginalis: 0 (Herbicidal ratio of 5% or lower (almost no effect))
[5]
  herbicidal effect on H (Echinochloa crus-galli var. crus-galli), grade 0-5: 5 (Herbicidal ratio of 90% or more (almost completely withered))
[6]
  N (Amaranthus retroflexus) herbicidal effect grade: 0 (Herbicidal ratio of 5% or lower (almost no effect))
[7]
  d (soybean) effect on crop grade: 0 (Herbicidal ratio of 5% or lower (almost no effect))
[8]
  g (rapeseed) effect on crop grade: 3 (Herbicidal ratio of 40% or higher and lower than 70%)
[9]
  I: Avena fatua, herbicidal effect grade: 2 (Herbicidal ratio of 20% or higher and lower than 40%)
[10]
  d: soybean, effect on crop grade: 3 (Herbicidal ratio of 40% or higher and lower than 70%)
[11]
  b: directly sowed rice plant, effect on crop grade: 5 (Herbicidal ratio of 90% or more (almost completely withered))
[12]
  e: wheat, effect on crop grade: 0 (Herbicidal ratio of 5% or lower (almost no effect))

## CON=C(C)CC1CC(OC(=O)COc2ccc3ccccc3c2)=C(c2c(C)cc(C)cc2C)C1=O (stereo not drawn) [1-083]
[1]
  Herbicidal effect grade, A: Echinochloa oryzacola Vasing.: 5 (Herbicidal ratio of 90% or more (almost completely withered))
[2]
  Herbicidal effect grade, B: Scirpus juncoides: 4 (Herbicidal ratio of 70% or higher and lower than 90%)
[3]
  Herbicidal effect grade, B: Scirpus juncoides: 4 (Herbicidal ratio of 70% or higher and lower than 90%)
[4]
  Herbicidal effect grade, C: Monochoria vaginalis: 3 (Herbicidal ratio of 40% or higher and lower than 70%)
[5]
  herbicidal effect on H (Echinochloa crus-galli var. crus-galli), grade 0-5: 5 (Herbicidal ratio of 90% or more (almost completely withered))
[6]
  N: Amaranthus retroflexus, herbicidal effect grade: 5 (Herbicidal ratio of 90% or more (almost completely withered))
[7]
  d: soybean, effect grade on crop: 1 (Herbicidal ratio of 5% or higher and lower than 20%)
[8]
  g: rapeseed, effect grade on crop: 4 (Herbicidal ratio of 70% or higher and lower than 90%)
[9]
  I: Avena fatua, herbicidal effect (criteria 0-5): 5 (Herbicidal ratio of 90% or more (almost completely withered))
[10]
  d: soybean, effect on crop (criteria 0-5): 4 (Herbicidal ratio of 70% or higher and lower than 90%)
[11]
  b: directly sowed rice plant, effect on crop (criteria 0-5): 5 (Herbicidal ratio of 90% or more (almost completely withered))
[12]
  e: wheat, effect on crop (criteria 0-5): 5 (Herbicidal ratio of 90% or more (almost completely withered))
